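Briefly, cells in 96-well plates were exposed to five compound concentrations for 48 h, and endpoints were estimated by linear interpolation. Abbreviation: GI50, concentration required for 50% inhibition of growth.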 Activity calls are given as the source filed them. No stated cut-off is given here; in the data, active = GI50 up to about 1.1 µM and inactive = higher.
How the values were obtained:
Test in all cases: DTP human tumour cell line panel, 48 h
[1] = tested on: DMS-114
[2] = tested on: M19-MEL
[3] = tested on: LXFL 529
[4] = tested on: KM-20L2
[5] = tested on: SNB-78
[6] = tested on: XF498
[7] = tested on: RXF 631
[8] = tested on: DLD-1
[9] = tested on: HOP-18

Compound: CC(C)Cn1cnc2c(Sc3c([N+](=O)[O-])ncn3C)nc(N)nc21
- GI50 [1]: > 100 µM (inactive)
- GI50 [2]: > 100 µM (inactive)
- GI50 [3]: > 100 µM (inactive)
- GI50 [4]: > 100 µM (inactive)
- GI50 [5]: > 100 µM (inactive)

Compound: Cc1cccc(C)c1NC(=O)CCCC(=O)C(C#N)c1ccccc1 (centres undefined)
- GI50 [2]: > 100 µM (inactive)
- GI50 [3]: > 100 µM (inactive)
- GI50 [4]: > 10 µM (inactive)
- GI50 [6]: > 10 µM (inactive)
- GI50 [7]: > 100 µM (inactive)
- GI50 [5]: > 100 µM (inactive)
- GI50 [8]: > 100 µM (inactive)

Compound: CC1=C(O)C(=O)C2C(=O)C1C1Cc3ccccc3C21 (centres undefined)
- GI50 [2]: > 100 µM (inactive)
- GI50 [3]: > 100 µM (inactive)
- GI50 [6]: > 100 µM (inactive)
- GI50 [7]: > 100 µM (inactive)
- GI50 [5]: > 100 µM (inactive)
- GI50 [8]: > 100 µM (inactive)

Compound: O=C(CO)C1CC2C=CC1C2 (centres undefined)
- GI50 [1]: > 100 µM (inactive)
- GI50 [2]: > 100 µM (inactive)
- GI50 [3]: > 100 µM (inactive)
- GI50 [6]: > 100 µM (inactive)
- GI50 [7]: > 100 µM (inactive)
- GI50 [5]: > 100 µM (inactive)

Compound: O=[N+]([O-])[C@@H]1C2C=CC(C2)[C@H]1Cl (some centres undefined)
- GI50 [1]: > 100 µM (inactive)
- GI50 [2]: > 100 µM (inactive)
- GI50 [3]: > 100 µM (inactive)
- GI50 [9]: > 100 µM (inactive)
- GI50 [6]: > 100 µM (inactive)
- GI50 [7]: > 100 µM (inactive)
- GI50 [5]: > 100 µM (inactive)
- GI50 [8]: > 100 µM (inactive)

Compound: c1ccc2c(c1)OCCOCCOc1ccccc1OCCO2
- GI50 [1]: 84.1 µM (inactive)
- GI50 [2]: 41.9 µM (inactive)
- GI50 [3]: 68.5 µM (inactive)
- GI50 [9]: 34.2 µM (inactive)
- GI50 [4]: 29.8 µM (inactive)
- GI50 [5]: > 100 µM (inactive)
- GI50 [8]: 61.9 µM (inactive)

Compound: Cc1cc(CS(=O)(=O)/C=C/c2ccccc2[N+](=O)[O-])c(CS(=O)(=O)/C=C/c2ccccc2[N+](=O)[O-])cc1C
- GI50 [1]: 45.1 µM (inactive)
- GI50 [2]: > 100 µM (inactive)
- GI50 [3]: > 100 µM (inactive)
- GI50 [4]: > 100 µM (inactive)
- GI50 [6]: 15.5 µM (inactive)
- GI50 [5]: 23 µM (inactive)

Compound: CC1=C(c2cc(C(=O)Nc3ccc(Cl)c(Cl)c3)nc(N)n2)Sc2ccccc2N1
- GI50 [1]: > 100 µM (inactive)
- GI50 [2]: > 100 µM (inactive)
- GI50 [3]: > 100 µM (inactive)
- GI50 [9]: > 100 µM (inactive)
- GI50 [4]: > 100 µM (inactive)
- GI50 [6]: > 100 µM (inactive)
- GI50 [5]: > 100 µM (inactive)
- GI50 [8]: > 100 µM (inactive)

Compound: O=C(O)c1c2c(c(C(=O)O)c3ccccc13)-c1ccccc1-2
- GI50 [1]: 74.1 µM (inactive)
- GI50 [2]: 69 µM (inactive)
- GI50 [3]: 39.8 µM (inactive)
- GI50 [9]: 20.4 µM (inactive)
- GI50 [4]: 42.7 µM (inactive)
- GI50 [6]: 35.5 µM (inactive)
- GI50 [5]: 71.1 µM (inactive)
- GI50 [8]: 41.4 µM (inactive)

Compound: CC1=CC(=O)c2c(C=O)c(O)c(O)c(C(C)C)c2C1=O
- GI50 [1]: 22.6 µM (inactive)
- GI50 [2]: 37.9 µM (inactive)
- GI50 [3]: 16.5 µM (inactive)
- GI50 [9]: 25.9 µM (inactive)
- GI50 [4]: 29.1 µM (inactive)
- GI50 [6]: 20.6 µM (inactive)
- GI50 [5]: 45.9 µM (inactive)
- GI50 [8]: 23.9 µM (inactive)

Compound: COc1ccc2c3c([nH]c2c1[N+](=O)[O-])C(C)N(C)CC3 (centres undefined)
- GI50 [1]: > 100 µM (inactive)
- GI50 [2]: > 100 µM (inactive)
- GI50 [3]: 69 µM (inactive)
- GI50 [9]: 19.4 µM (inactive)
- GI50 [4]: 62.4 µM (inactive)
- GI50 [6]: > 100 µM (inactive)
- GI50 [5]: > 100 µM (inactive)
- GI50 [8]: > 100 µM (inactive)

Compound: CCN(CC)/C(=C\Cl)Nc1ccccn1.[O-][Cl+3]([O-])([O-])O
- GI50 [1]: > 100 µM (inactive)
- GI50 [2]: > 100 µM (inactive)
- GI50 [3]: > 100 µM (inactive)
- GI50 [9]: > 100 µM (inactive)
- GI50 [4]: > 100 µM (inactive)
- GI50 [6]: > 100 µM (inactive)
- GI50 [7]: > 100 µM (inactive)
- GI50 [5]: > 100 µM (inactive)
- GI50 [8]: > 100 µM (inactive)

Compound: CCc1cc(C)cc2[n+]1CC=C2C.[O-][Cl+3]([O-])([O-])[O-]
- GI50 [2]: > 100 µM (inactive)
- GI50 [3]: 80.5 µM (inactive)
- GI50 [9]: 1.72 µM (inactive)
- GI50 [4]: > 100 µM (inactive)
- GI50 [5]: > 100 µM (inactive)
- GI50 [8]: > 100 µM (inactive)

Compound: O=C1CC(c2ccccc2)NCN1 (centres undefined)
- GI50 [1]: > 100 µM (inactive)
- GI50 [2]: > 100 µM (inactive)
- GI50 [3]: > 100 µM (inactive)
- GI50 [9]: > 100 µM (inactive)
- GI50 [4]: > 100 µM (inactive)
- GI50 [5]: > 100 µM (inactive)
- GI50 [8]: > 100 µM (inactive)

Compound: CC(=O)OCc1cc2c(s1)C(=O)c1sccc1C2=O
- GI50 [1]: 0.149 µM (active)
- GI50 [2]: < 0.01 µM (active)
- GI50 [3]: 0.308 µM (active)
- GI50 [9]: 0.145 µM (active)
- GI50 [4]: 2.24 µM (inactive)
- GI50 [5]: 13.2 µM (inactive)
- GI50 [8]: 0.187 µM (active)

Compound: S=C(Nc1ccccc1)Nc1ccccc1SC(/C=C/NNC1=NN=C(c2ccccc2)C(c2ccccc2)N1)c1ccccc1 (centres undefined)
- GI50 [1]: 12.2 µM (inactive)
- GI50 [2]: > 100 µM (inactive)
- GI50 [4]: > 100 µM (inactive)
- GI50 [6]: > 100 µM (inactive)
- GI50 [7]: > 100 µM (inactive)
- GI50 [5]: > 100 µM (inactive)
- GI50 [8]: 79.8 µM (inactive)

Compound: COc1cc2c(c(OC)c1OC)-c1ccc(SC)c(=O)cc1C(CC(=O)Oc1ccc(F)cc1)C2 (centres undefined)
- GI50 [1]: 0.26 µM (active)
- GI50 [2]: 0.236 µM (active)
- GI50 [3]: 0.31 µM (active)
- GI50 [9]: 0.53 µM (active)
- GI50 [4]: 0.124 µM (active)
- GI50 [6]: 0.318 µM (active)
- GI50 [5]: 0.142 µM (active)
- GI50 [8]: 0.288 µM (active)

Compound: CCc1cc(CCC(=O)Nc2c(C)cccc2C)n[nH]1
- GI50 [2]: > 100 µM (inactive)
- GI50 [3]: > 100 µM (inactive)
- GI50 [9]: > 100 µM (inactive)
- GI50 [4]: > 100 µM (inactive)
- GI50 [6]: > 100 µM (inactive)
- GI50 [7]: > 100 µM (inactive)
- GI50 [5]: > 100 µM (inactive)
- GI50 [8]: > 100 µM (inactive)

Compound: O=C(O)c1c(-c2cccc3ccccc23)sc(-c2cccc3ccccc23)c1C(=O)O
- GI50 [1]: > 100 µM (inactive)
- GI50 [2]: > 100 µM (inactive)
- GI50 [3]: > 100 µM (inactive)
- GI50 [9]: 96.2 µM (inactive)
- GI50 [4]: 50 µM (inactive)
- GI50 [6]: 18.2 µM (inactive)
- GI50 [5]: > 100 µM (inactive)
- GI50 [8]: > 100 µM (inactive)

Compound: CCOC1=C2C(=O)OC(=O)C2C2CCCCC2=C1 (centres undefined)
- GI50 [1]: > 100 µM (inactive)
- GI50 [2]: > 100 µM (inactive)
- GI50 [3]: > 100 µM (inactive)
- GI50 [6]: > 100 µM (inactive)
- GI50 [5]: > 100 µM (inactive)
- GI50 [8]: > 100 µM (inactive)

Compound: Cc1ccc(-c2nc3c(C(=O)NCCN(C)C)cccc3[nH]2)cc1
- GI50 [1]: 13.3 µM (inactive)
- GI50 [2]: 16.2 µM (inactive)
- GI50 [9]: 15.3 µM (inactive)
- GI50 [7]: 4.89 µM (inactive)
- GI50 [5]: 20.2 µM (inactive)
- GI50 [8]: 13.5 µM (inactive)

Compound: O=C(N/C(=C\c1ccc(/C=C(\NC(=O)c2ccccc2)c2nc3cc(Cl)ccc3[nH]2)cc1)c1nc2cc(Cl)ccc2[nH]1)c1ccccc1
- GI50 [1]: 22.9 µM (inactive)
- GI50 [2]: 32.2 µM (inactive)
- GI50 [3]: 22.9 µM (inactive)
- GI50 [9]: 8.91 µM (inactive)
- GI50 [4]: 18 µM (inactive)
- GI50 [6]: 35.1 µM (inactive)
- GI50 [5]: > 100 µM (inactive)
- GI50 [8]: 27.7 µM (inactive)

Compound: COC(=O)c1ccccc1NCc1cc(O)ccc1O
- GI50 [2]: 17.5 µM (inactive)
- GI50 [3]: 17.5 µM (inactive)
- GI50 [9]: 14.5 µM (inactive)
- GI50 [4]: > 100 µM (inactive)
- GI50 [6]: 17.1 µM (inactive)
- GI50 [5]: 20.3 µM (inactive)
- GI50 [8]: 20.2 µM (inactive)

Compound: COc1cc2c(cc1OC)[Se]c1cc(OC)c(OC)cc1[Se]2
- GI50 [1]: 5.61 µM (inactive)
- GI50 [2]: > 10 µM (inactive)
- GI50 [3]: > 10 µM (inactive)
- GI50 [9]: 16.6 µM (inactive)
- GI50 [4]: > 10 µM (inactive)
- GI50 [6]: > 10 µM (inactive)
- GI50 [5]: > 10 µM (inactive)
- GI50 [8]: > 10 µM (inactive)

Compound: COc1c(O)c2c3c(cc(C)cc3c1C(C)C)OC2
- GI50 [2]: > 100 µM (inactive)
- GI50 [3]: > 100 µM (inactive)
- GI50 [9]: > 100 µM (inactive)
- GI50 [4]: > 100 µM (inactive)
- GI50 [6]: > 100 µM (inactive)
- GI50 [5]: > 100 µM (inactive)
- GI50 [8]: > 100 µM (inactive)

Compound: O=C(CSc1nnc[nH]1)C[P+](c1ccccc1)(c1ccccc1)c1ccccc1
- GI50 [1]: 97.1 µM (inactive)
- GI50 [2]: > 100 µM (inactive)
- GI50 [3]: > 100 µM (inactive)
- GI50 [4]: > 100 µM (inactive)
- GI50 [6]: 85.1 µM (inactive)
- GI50 [5]: > 100 µM (inactive)
- GI50 [8]: > 100 µM (inactive)

Compound: C/C(=N\NC(=O)c1ccccc1O)c1cccc(/C(C)=N/NC(=O)c2ccccc2O)n1
- GI50 [1]: 2.66 µM (inactive)
- GI50 [3]: 2.22 µM (inactive)
- GI50 [6]: 18.6 µM (inactive)

— ChEMBL document CHEMBL1201862, “PubChem BioAssay data set” (2004)
